Holding throughout (assay type): functional, organism-based
Test [1] concerns Staphylococcus aureus. Description: Antimicrobial activity against Staphylococcus aureus expressing mgrA C12S mutant gene harboring Pyj335-His-mgrA assessed as visible growth at 1 ug/ml after 24 hrs.
Test [2] deals with Staphylococcus aureus. Description: Antimicrobial activity against Staphylococcus aureus expressing mgrA C12S mutant gene assessed as visible growth at 1 ug/ml after 24 hrs in presence of 20 uM paraquat.
Test [3] deals with Staphylococcus aureus. Description: Antimicrobial activity against Staphylococcus aureus assessed as visible growth at 0.6 ug/ml after 24 hrs in presence of 20 uM paraquat.
Test [4] concerns Staphylococcus aureus. Description: Antimicrobial activity against Staphylococcus aureus expressing mgrA C12S mutant gene harboring plasmid Pyj335 assessed as visible growth at 1 ug/ml after 24 hrs in presence of 20 uM paraquat.
The subject of test [5] is Staphylococcus aureus. Description: Antimicrobial activity against Staphylococcus aureus expressing mgrA C12S mutant gene harboring Pyj335-His-mgrA assessed as visible growth at 0.6 ug/ml after 24 hrs.
Test [6] has as its system Staphylococcus aureus. Description: Antimicrobial activity against Staphylococcus aureus expressing mgrA C12S mutant gene harboring plasmid Pyj335 assessed as visible growth at 1.1 ug/ml after 24 hrs.
Test [7] concerns Staphylococcus aureus. Description: Antimicrobial activity against Staphylococcus aureus expressing mgrA C12S mutant gene harboring plasmid Pyj335 assessed as visible growth at 2.2 ug/ml after 24 hrs.
Test [8] relates to Staphylococcus aureus. Description: Antimicrobial activity against Staphylococcus aureus expressing mgrA C12S mutant gene harboring Pyj335-His-mgrA assessed as visible growth at 2.2 ug/ml after 24 hrs.
The test system of test [9] is Staphylococcus aureus. Description: Antimicrobial activity against Staphylococcus aureus expressing mgrA C12S mutant gene harboring Pyj335-His-mgrA assessed as visible growth at 2.6 ug/ml after 24 hrs in presence of 20 uM paraquat.
Test [10] has as its system Staphylococcus aureus. Description: Antimicrobial activity against Staphylococcus aureus expressing mgrA C12S mutant gene assessed as visible growth at 1.4 ug/ml after 24 hrs in presence of 20 uM paraquat.
For test [11], the system named is Staphylococcus aureus. Description: Antimicrobial activity against Staphylococcus aureus assessed as visible growth at 2.6 ug/ml after 24 hrs in presence of 20 uM paraquat.
For test [12], the system named is Staphylococcus aureus. Description: Antimicrobial activity against Staphylococcus aureus expressing mgrA C12S mutant gene harboring Pyj335-His-mgrA assessed as visible growth at 2.2 ug/ml after 24 hrs in presence of 20 uM paraquat.
Test [13] relates to Staphylococcus aureus. Description: Antimicrobial activity against Staphylococcus aureus expressing mgrA C12S mutant gene assessed as visible growth at 1.8 ug/ml after 24 hrs.
Test [14] deals with Staphylococcus aureus. Description: Antimicrobial activity against Staphylococcus aureus expressing mgrA C12S mutant gene assessed as visible growth at 1.4 ug/ml after 24 hrs.
Test [15] relates to Staphylococcus aureus. Description: Antimicrobial activity against Staphylococcus aureus expressing mgrA C12S mutant gene harboring Pyj335-His-mgrA assessed as visible growth at 2.6 ug/ml after 24 hrs.
Test [16] concerns Staphylococcus aureus. Description: Antimicrobial activity against Staphylococcus aureus expressing mgrA C12S mutant gene harboring Pyj335-His-mgrA C12S assessed as visible growth at 1.1 ug/ml after 24 hrs in presence of 100 uM hydrogen peroxide.
Test [17] has as its system Staphylococcus aureus. Description: Antimicrobial activity against Staphylococcus aureus expressing mgrA C12S mutant gene harboring plasmid Pyj335 assessed as visible growth at 0.6 ug/ml after 24 hrs.
The subject of test [18] is Staphylococcus aureus. Description: Antimicrobial activity against Staphylococcus aureus assessed as visible growth at 2.2 ug/ml after 24 hrs in presence of 20 uM paraquat.
The subject of test [19] is Staphylococcus aureus. Description: Antimicrobial activity against Staphylococcus aureus expressing mgrA C12S mutant gene harboring Pyj335-His-mgrA assessed as visible growth at 0.35 ug/ml after 24 hrs.
For test [20], the system named is Staphylococcus aureus. Description: Antimicrobial activity against Staphylococcus aureus expressing mgrA C12S mutant gene assessed as visible growth at 0.25 ug/ml after 24 hrs.
The test system of test [21] is Staphylococcus aureus. Description: Antimicrobial activity against Staphylococcus aureus assessed as visible growth at 0.55 ug/ml after 24 hrs.
Test [22] concerns Staphylococcus aureus. Description: Antimicrobial activity against Staphylococcus aureus expressing mgrA C12S mutant gene harboring Pyj335-His-mgrA assessed as visible growth at 0.20 ug/ml after 24 hrs in presence of 25 uM paraquat.
Test [23] has as its system Staphylococcus aureus. Description: Antimicrobial activity against Staphylococcus aureus expressing mgrA C12S mutant gene harboring Pyj335-His-mgrA assessed as visible growth at 0.35 ug/ml after 24 hrs in presence of 20 uM paraquat.
In test [24] the test system is Staphylococcus aureus. Description: Antimicrobial activity against Staphylococcus aureus expressing mgrA C12S mutant gene harboring plasmid Pyj335 assessed as visible growth at 0.45 ug/ml after 24 hrs.
Test [25] has as its system Staphylococcus aureus. Description: Antimicrobial activity against Staphylococcus aureus expressing mgrA C12S mutant gene assessed as visible growth at 0.55 ug/ml after 24 hrs.
Test [26] relates to Staphylococcus aureus. Description: Antimicrobial activity against Staphylococcus aureus assessed as visible growth at 0.20 ug/ml after 24 hrs in presence of 100 uM hydrogen peroxide.
Test [27] concerns Staphylococcus aureus. Description: Antimicrobial activity against Staphylococcus aureus expressing mgrA C12S mutant gene harboring plasmid Pyj335 assessed as visible growth at 0.25 ug/ml after 24 hrs in presence of 20 uM paraquat.
The test system of test [28] is Staphylococcus aureus. Description: Antimicrobial activity against Staphylococcus aureus expressing mgrA C12S mutant gene harboring Pyj335-His-mgrA C12S assessed as visible growth at 0.20 ug/ml after 24 hrs.
Test [29] relates to Staphylococcus aureus. Description: Antimicrobial activity against Staphylococcus aureus expressing mgrA C12S mutant gene assessed as visible growth at 0.55 ug/ml after 24 hrs in presence of 20 uM paraquat.
In test [30] the test system is Staphylococcus aureus. Description: Antimicrobial activity against Staphylococcus aureus assessed as visible growth at 0.65 ug/ml after 24 hrs in presence of 20 uM paraquat.
Test [31] deals with Staphylococcus aureus. Description: Antimicrobial activity against Staphylococcus aureus expressing mgrA C12S mutant gene harboring plasmid Pyj335 assessed as visible growth at 0.25 ug/ml after 24 hrs.
The subject of test [32] is Staphylococcus aureus. Description: Antimicrobial activity against Staphylococcus aureus expressing mgrA C12S mutant gene harboring plasmid Pyj335 assessed as visible growth at 0.20 ug/ml after 24 hrs.
The subject of test [33] is Staphylococcus aureus. Description: Antimicrobial activity against Staphylococcus aureus assessed as visible growth at 0.65 ug/ml after 24 hrs.
Test [34] deals with Staphylococcus aureus. Description: Antimicrobial activity against Staphylococcus aureus assessed as visible growth at 0.20 ug/ml after 24 hrs in presence of 25 uM paraquat.
The test system of test [35] is Staphylococcus aureus. Description: Antimicrobial activity against Staphylococcus aureus expressing mgrA C12S mutant gene harboring Pyj335-His-mgrAC12S assessed as visible growth at 0.20 ug/ml after 24 hrs in presence of 100 uM hydrogen peroxide.
In test [36] the test system is Staphylococcus aureus. Description: Antimicrobial activity against Staphylococcus aureus expressing mgrA C12S mutant gene assessed as visible growth at 0.75 ug/ml after 24 hrs in presence of 20 uM paraquat.
For test [37], the system named is Staphylococcus aureus. Description: Antimicrobial activity against Staphylococcus aureus assessed as visible growth at 0.25 ug/ml after 24 hrs in presence of 20 uM paraquat.
For test [38], the system named is Staphylococcus aureus. Description: Antimicrobial activity against Staphylococcus aureus expressing mgrA C12S mutant gene assessed as visible growth at 0.20 ug/ml after 24 hrs.
For test [39], the system named is Staphylococcus aureus. Description: Antimicrobial activity against Staphylococcus aureus expressing mgrAC12S mutant gene assessed as visible growth at 0.20 ug/ml after 24 hrs in presence of 100 uM hydrogen peroxide.

SMILES strings stand for the structures. Active and inactive are the calls of the source. The calls are words filed in the database; no cut-off is given here.

As for `CN[C@H](CC(C)C)C(=O)N[C@H]1C(=O)N[C@@H](CC(N)=O)C(=O)N[C@H]2C(=O)N[C@H]3C(=O)N[C@H](C(=O)N[C@H](C(=O)O)c4cc(O)cc(O)c4-c4cc3ccc4O)[C@H](O)c3ccc(c(Cl)c3)Oc3cc2cc(c3O[C@@H]2O[C@H](CO)[C@@H](O)[C@H](O)[C@H]2O[C@H]2C[C@](C)(N)[C@H](O)[C@H](C)O2)Oc2ccc(cc2Cl)[C@H]1O` [VANCOMYCIN], the outcome in [1], in test [2], in test [3], in test [4], in test [5] and in test [6] was inactive. In addition, the outcome in [7], in [10], in test [13], in test [14] and in [17] was inactive. Further, the outcome in [8], in [9], in [11], in test [12], in test [15] and in [16] was Active. Besides, the result in test [18] was Active.

For `O=C(O)c1cn(C2CC2)c2cc(N3CCNCC3)c(F)cc2c1=O` [CIPROFLOXACIN], the outcome in test [19], in test [21], in [22], in test [26], in test [28] and in test [30] was Active. Moreover, the outcome in test [33], in test [34], in test [35] and in test [36] was Active. The result in test [20], in test [23], in test [24], in [25], in test [27] and in test [29] was inactive. Further, the outcome in test [31], in test [32], in [37], in [38] and in test [39] was inactive.
